The test system of one series is Cyperus iria. The series is described as follows: Preemergence weed control under flooded paddy conditions, CYPIR (Rice Flatsedge). For herbicidal effect rating, CYPIR: meaning of each grade not given here. The class given is in vivo. The note with it: flooded paddy; for CYPIR: herbicidal effect rating 0-9, three to four weeks after treatment.
The next series has as its system Sagittaria pygmaea, L. In words: Preemergence weed control under flooded paddy conditions, SAGPY (Arrowhead (Pygmaea)). For herbicidal effect rating, SAGPY: meaning of each grade not given here. In kind it is in vivo. The settings on record: flooded paddy; for SAGPY: herbicidal effect rating 0-9, three to four weeks after treatment.
The subject of series [1] is Oryza sativa, (L.) Tebonnet. In words: Rice tolerance to post-transplant applications under flooded paddy conditions (Example 187), ORYSAT (Rice, Tebonnet). For herbicidal effect rating ORYSAT: meaning of each grade not given here. The settings on record: for herbicidal effect rating, ORYSAT (rice tolerance) / ORYSAT herbicidal rating (rice tolerance): rated three to four weeks after treatment; for ORYSAT: herbicidal effect rating 0-9, three to four weeks after treatment; for herbicidal effect rating ORYSAT: rated 3-4 weeks after treatment.

Series [2] concerns Cyperus serotinus, Rottb. In words: Preemergence weed control under flooded paddy conditions, CYPSE (Flatsedge). For herbicidal effect rating, CYPSE: meaning of each grade not given here. In kind it is in vivo. The note with it: for CYPSE: herbicidal effect rating 0-9, three to four weeks after treatment.
Series [3] relates to Echinochloa oryzoides (Ard.) Fritsch. The series is described as follows: Preemergence weed control under flooded paddy conditions, ECHORC (Watergrass (Calif.)). For herbicidal effect rating, ECHORC: meaning of each grade not given here. In kind it is in vivo. The note with it: flooded paddy; for ECHORC: herbicidal effect rating 0-9, three to four weeks after treatment.
For series [4], the system named is Monochoria vaginalis, Presl. In words: Preemergence weed control under flooded paddy conditions, MOOVA (Monochoria). For herbicidal effect rating, MOOVA: meaning of each grade not given here. The class given is in vivo. The note with it: flooded paddy; for MOOVA: herbicidal effect rating 0-9, three to four weeks after treatment.
[5] abbreviates: 0.0313 kg/ha, preemergence weeds, rated three to four weeks after treatment.
[6] abbreviates: 0.0625 kg/ha, preemergence weeds, rated three to four weeks after treatment.
[7] abbreviates: 0.1250 kg/ha, preemergence weeds, rated three to four weeks after treatment.
Setting [8] is: 0.2500 kg/ha, preemergence weeds, rated three to four weeks after treatment.
Setting [9] is: 0.0320 kg/ha, preemergence weeds.
The mark [10] stands for this setting: 0.0620 kg/ha, preemergence weeds.
[11] abbreviates: 0.1250 kg/ha, preemergence weeds.
The mark [12] stands for this setting: 0.2500 kg/ha, preemergence weeds.
Setting [13] is: Rate 0.0320 kg/ha, preemergence, rated 3-4 weeks after treatment.
Setting [14] is: Rate 0.0620 kg/ha, preemergence, rated 3-4 weeks after treatment.
Where [15] appears, read: Rate 0.1250 kg/ha, preemergence, rated 3-4 weeks after treatment.
Where [16] appears, read: Rate 0.2500 kg/ha, preemergence, rated 3-4 weeks after treatment.
[17] abbreviates: Rate 0.5000 kg/ha, preemergence, rated 3-4 weeks after treatment.
Setting [18] is: 0.0320 kg/ha, preemergence, rated three to four weeks after treatment.
Where [19] appears, read: 0.0620 kg/ha, preemergence, rated three to four weeks after treatment.
Where [20] appears, read: 0.1250 kg/ha, preemergence, rated three to four weeks after treatment.
Setting [21] is: 0.2500 kg/ha, preemergence, rated three to four weeks after treatment.

With `C=CCOCc1nsc2ccc(-n3c(=O)cc(C(F)(F)F)n(C)c3=O)cc12` [Example 196, 3-{3-[(Allyloxy)methyl]-1,2-benzisothiazol-5-yl}-1-methyl-6-(trifluoromethyl)-2,4(1H,3H)-pyrimidinedione], the “herbicidal effect rating, CYPIR” value is recorded as 0.0 in the series with Cyperus iria (setting [5]), 0.0 in the series on Cyperus iria (setting [6]), 1.0 in the series with Cyperus iria (setting [7]) and 4.0 in the series on Cyperus iria (setting [8]). The “herbicidal effect rating, SAGPY” value is listed as 0.0 in the series with Sagittaria pygmaea, L. (setting [5]); 0.0 in the series on Sagittaria pygmaea, L. (setting [6]); 0.0 in the series on Sagittaria pygmaea, L. (setting [7]); 0.0 in the series with Sagittaria pygmaea, L. (setting [8]). For the same molecule, the “herbicidal effect rating, ORYSAT (rice tolerance)” value in series [1] (0.0313 kg/ha) was found to be 4.0; in series [1] (0.0625 kg/ha), 6.0; in series [1] (0.1250 kg/ha), 8.0; in series [1] (0.2500 kg/ha) it was 8.0. Besides, the “herbicidal effect rating, CYPSE” value in series [2] (setting [5]) is 2.0; in series [2] (setting [6]) it was 4.0; in series [2] (setting [7]), 6.0; in series [2] (setting [8]) it was 9.0. For the same molecule, the “herbicidal effect rating, ECHORC” value turned out to be 0.0 in series [3] (setting [5]), 2.0 in series [3] (setting [6]), 4.0 in series [3] (setting [7]) and 4.0 in series [3] (setting [8]). Also, the “herbicidal effect rating, MOOVA” value in series [4] (setting [5]), in series [4] (setting [6]), in series [4] (setting [7]) and in series [4] (setting [8]) was 9.0 each time.
Turning to `Cn1c(C(F)(F)F)cc(=O)n(-c2ccc3snc(C(=O)SCc4ccccc4)c3c2)c1=O` [Example 421, 1,2-Benzisothiazole-3-thiocarboxylic acid, 5-[3,6-dihydro-3-methyl-2,6-dioxo-4-(trifluoromethyl)-1(2H)-pyrimidinyl]-, S-benzyl ester], the CYPIR in the series on Cyperus iria (setting [9]) stood at 2.0; in the series on Cyperus iria (setting [10]), 6.0; in the series with Cyperus iria (setting [11]), 8.0; with Cyperus iria (setting [12]), 9.0. Further, the SAGPY with Sagittaria pygmaea, L. (setting [9]) is 0.0; in the series on Sagittaria pygmaea, L. (setting [10]) it was 0.0; with Sagittaria pygmaea, L. (setting [11]), 0.0; in the series on Sagittaria pygmaea, L. (setting [12]), 2.0. The ORYSAT in series [1] (0.0320 kg/ha) is 0.0; in series [1] (0.0620 kg/ha), 0.0; in series [1] (0.1250 kg/ha) it was 0.0; in series [1] (0.2500 kg/ha), 2.0. The molecule further came in with a CYPSE in series [2] (setting [12]) of 4.0. Besides, the ECHORC in series [3] (setting [9]) is on record as 5.0; in series [3] (setting [10]), 5.0; in series [3] (setting [11]) it was 7.0; in series [3] (setting [12]) it was 9.0. The MOOVA in series [4] (setting [9]) is reported as 5.0; in series [4] (setting [10]), 6.0; in series [4] (setting [11]), 7.0; in series [4] (setting [12]) it was 9.0.
For the molecule `Cn1c(C(F)(F)F)cc(=O)n(-c2ccc3snc(COC4CCCCO4)c3c2)c1=O` (stereo not drawn) [Example 456, 2,4(1H,3H)-Pyrimidinedione, 1-methyl-3-{3-{[(tetrahydro-2H-pyran-2-yl)oxy]methyl}-1,2-benzisothiazol-5-yl}-6-(trifluoromethyl)-], the CYPIR is listed as 0.0 in the series with Cyperus iria (setting [9]), 4.0 with Cyperus iria (setting [10]), 6.0 in the series with Cyperus iria (setting [11]) and 6.0 with Cyperus iria (setting [12]). In addition, the SAGPY came out at 0.0 with Sagittaria pygmaea, L. (setting [9]); 0.0 with Sagittaria pygmaea, L. (setting [10]); 2.0 in the series with Sagittaria pygmaea, L. (setting [11]); 4.0 with Sagittaria pygmaea, L. (setting [12]). In addition, the ORYSAT in series [1] (0.0320 kg/ha) came to 7.0; in series [1] (0.0620 kg/ha) it was 8.0; in series [1] (0.1250 kg/ha), 8.0; in series [1] (0.2500 kg/ha), 9.0. Besides, the CYPSE in series [2] (setting [9]) was 0.0; in series [2] (setting [10]), 0.0; in series [2] (setting [11]), 2.0; in series [2] (setting [12]), 4.0. Also, the ECHORC came out at 4.0 in series [3] (setting [9]), 6.0 in series [3] (setting [10]), 7.0 in series [3] (setting [11]) and 9.0 in series [3] (setting [12]). Besides, the MOOVA in series [4] (setting [9]) came to 7.0; in series [4] (setting [10]), 9.0; in series [4] (setting [11]), 9.0; in series [4] (setting [12]) it was 9.0.
`Cc1ccc(OC(C)(C)C(=O)OC(C)C)c(-c2nsc3ccc(-n4c(=O)cc(C(F)(F)F)n(C)c4=O)cc23)c1` [Example 547, Propionic acid, 2-{{2-{5-[3,6-dihydro-3-methyl-2,6-dioxo-4-(trifluoromethyl)-1(2H)-pyrimidinyl]-1,2-benzisothiazol-3-yl}-p-tolyl}oxy}-2-methyl-, isopropyl ester]: the “herbicidal effect rating, CYPIR” value in the series with Cyperus iria (setting [13]) is on record as 7.0; with Cyperus iria (setting [14]), 7.0; in the series with Cyperus iria (setting [15]), 9.0; in the series with Cyperus iria (setting [16]), 9.0; in the series with Cyperus iria (setting [17]), 9.0. Besides, the “herbicidal effect rating, SAGPY” value in the series on Sagittaria pygmaea, L. (setting [13]) is 2.0; with Sagittaria pygmaea, L. (setting [14]), 4.0; in the series on Sagittaria pygmaea, L. (setting [15]), 4.0; with Sagittaria pygmaea, L. (setting [16]), 7.0; with Sagittaria pygmaea, L. (setting [17]) it was 3.0. The “herbicidal effect rating ORYSAT” value in series [1] (Rate 0.0320 kg/ha) turned out to be 2.0; in series [1] (Rate 0.0620 kg/ha), 3.0; in series [1] (Rate 0.1250 kg/ha) it was 4.0; in series [1] (Rate 0.2500 kg/ha), 4.0; in series [1] (Rate 0.5000 kg/ha), 3.0. Moreover, the “herbicidal effect rating, CYPSE” value in series [2] (setting [13]) was 6.0; in series [2] (setting [14]), 8.0; in series [2] (setting [15]) it was 8.0; in series [2] (setting [16]), 7.0; in series [2] (setting [17]), 0.0. Further, the “herbicidal effect rating, ECHORC” value in series [3] (setting [13]) was determined as 5.4; in series [3] (setting [14]), 5.4; in series [3] (setting [15]), 5.6; in series [3] (setting [16]), 9.0; in series [3] (setting [17]), 9.0. The “herbicidal effect rating, MOOVA” value in series [4] (setting [13]), in series [4] (setting [14]), in series [4] (setting [15]), in series [4] (setting [16]) and in series [4] (setting [17]) was 9.0 throughout.
On to `CC(C)NS(=O)(=O)NC(=O)c1nsc2ccc(-n3c(=O)cc(C(F)(F)F)n(C)c3=O)cc12` [Example 508, 1,2-Benzisothiazole-3-carboxamide, 5-[3,6-dihydro-3-methyl-2,6-dioxo-4-(trifluoromethyl)-1(2H)-pyrimidinyl]-N-(isopropylsulfamoyl)-], for which the CYPIR herbicidal rating in the series with Cyperus iria (setting [18]) came to 6.0; with Cyperus iria (setting [19]), 7.0; with Cyperus iria (setting [20]) it was 7.0; with Cyperus iria (setting [21]), 9.0. The SAGPY herbicidal rating with Sagittaria pygmaea, L. (setting [18]) is given as 5.0; in the series on Sagittaria pygmaea, L. (setting [19]) it was 6.0; with Sagittaria pygmaea, L. (setting [20]), 9.0; in the series on Sagittaria pygmaea, L. (setting [21]), 9.0. Moreover, the “ORYSAT herbicidal rating (rice tolerance)” value in series [1] (0.0320 kg/ha) is on record as 0.0; in series [1] (0.0620 kg/ha), 2.0; in series [1] (0.1250 kg/ha), 5.0; in series [1] (0.2500 kg/ha), 6.0. In series [2] (setting [18]), the CYPSE herbicidal rating is 0.0. In addition, the ECHORC herbicidal rating in series [3] (setting [18]) is on record as 2.0; in series [3] (setting [19]), 5.0; in series [3] (setting [20]) it was 6.0; in series [3] (setting [21]), 9.0. Besides, the MOOVA herbicidal rating in series [4] (setting [18]), in series [4] (setting [19]), in series [4] (setting [20]) and in series [4] (setting [21]) was 9.0 each time.

(Values after EP0908457B1, “3-(1,2-benzisothiazol- and isoxazol-5-Y1)-2,4(1H,3H)-pyrimidinedione or thione and 3-(1,2-benzisothiazol- and isoxazol-5-y1)-4(3H)-pyrimidinone or thione herbicidal agents” (BASF AKTIENGESELLSCHAFT, priority 1997, dated 1999).)
